What all share (assay): DTP human tumour cell line panel, 48 h
The subject of test [1] is DU-145 prostate.
Test [2] relates to MDA-MB-231 breast.
Test [3] has as its system MDA-N.
The subject of test [4] is NCI-H226 lung.
The test system of test [5] is RXF 393 renal.
Test [6] deals with SF-295 CNS.
In test [7] the test system is SK-MEL-2 melanoma.
Test [8] concerns SK-MEL-28 melanoma.
Test [9] relates to SK-OV-3 ovarian.
Test [10] deals with SNB-19 CNS.

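Protocol summary: plate cells (96-well), add compound at 5 concentrations, incubate 48 h, interpolate endpoints linearly. The concentration for full growth arrest is given as TGI.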

Usually TGI stands for the concentration at which net growth stops. On to `Nc1nc(-c2ccccc2)cc(-c2ccc(F)cc2)c1-c1ccc(Cl)cc1`, for which the TGI in test [1], in test [2], in [3], in test [4], in [5] and in test [6] was greater than 100 µM each time. In addition, the TGI in test [7], in test [8], in test [9] and in test [10] was greater than 100 µM in each case.
Turning to `OCCOCn1nc(-c2ccccc2)nc1-c1cnccn1`, the TGI in [1], in test [2], in test [3], in test [5], in [6] and in test [8] was greater than 100 µM each time. Also, the total growth inhibition concentration (TGI) in [9] and in [10] was greater than 100 µM throughout.
As to `Nc1c(Cl)ncnc1NCC1(CO)CCC1`, the TGI in [1], in [2], in test [3], in test [4], in [6] and in test [7] was greater than 100 µM in each case. The compound further yielded a TGI in [8] greater than 100 µM.
Take `NC(=O)c1ccc(N)nc1`: the TGI in test [1] was greater than 400 µM; in test [2], greater than 400 µM; in [3], greater than 400 µM; in [4] it was greater than 400 µM; in test [5] it was 0.864 µM; in test [6], greater than 400 µM. Besides, the TGI in test [7], in [8], in test [9] and in test [10] was greater than 400 µM each time.
For the compound `Cn1c(=O)c2[nH]c(Nc3ccccc3)nc2n(C)c1=O`, the concentration for total growth inhibition (TGI) in [1], in test [2], in [3], in test [5], in [6] and in test [8] was greater than 10 µM in each case. Moreover, in [9], the TGI is greater than 10 µM.
For `CN(C)c1ccc(C(=C2C=CC(=[N+](C)C)C=C2)c2c(O)c(S(=O)(=O)[O-])cc3cc(S(=O)(=O)O)ccc23)cc1`, the total growth inhibition concentration (TGI) in test [1], in test [2], in test [3], in test [4], in [5] and in [6] was greater than 100 µM throughout. For the same compound, the TGI in test [7], in test [8], in test [9] and in test [10] was greater than 100 µM throughout.
As for `CCOC(=O)C(NC(=O)Nc1ccccc1)(Nc1cccc(Cl)c1)C(F)(F)F` (stereo not drawn), the concentration for total growth inhibition (TGI) in [1], in test [2], in [3], in test [4], in [5] and in test [7] was greater than 100 µM each time. The TGI in [8], in test [9] and in test [10] was greater than 100 µM in each case.
Take `Cc1cc(C)c2c(=O)n(CC(O)CN3CCN(c4ncccn4)CC3)sc2n1` (stereo not drawn): the TGI is 30.2 µM in test [1]; 31.3 µM in test [2]; 29.5 µM in [3]; greater than 100 µM in [4]; 33.6 µM in [5]; greater than 100 µM in test [6]. The concentration for total growth inhibition (TGI) is 32.7 µM in test [7], 36.6 µM in test [8], 32.8 µM in test [9] and greater than 100 µM in [10].
For the compound `C/C(=C/CC[C@](C)(OC1OC(CO)C(O)C(O)C1OC1OC(C)C(O)C(O)C1O)[C@H]1CC[C@]2(C)[C@@H]1CC[C@@H]1[C@@]3(C)CC[C@H](O)C(C)(C)[C@@H]3C[C@H](O)[C@]12C)CO` (stereo partly drawn), the TGI in test [1], in test [2], in [3], in test [4], in test [5] and in [6] was greater than 100 µM each time. Further, the TGI in [8], in test [9] and in test [10] was greater than 100 µM in each case.
Regarding `O=C(NCCc1ccc(F)cc1)c1cc(/C=C/c2cc(O)ccc2O)ccc1O`, the concentration for total growth inhibition (TGI) in [1] worked out at 33.2 µM; in test [2], 10.5 µM; in [3], 9.59 µM; in [4], 29.5 µM; in [5] it was 4.4 µM; in [6], 36.2 µM. In addition, the concentration for total growth inhibition (TGI) is 7.95 µM in test [7], greater than 25.3 µM in [8], 27.9 µM in [9] and 20.8 µM in test [10].
On to `CC(=O)O/N=C1\C=Cc2c(no[n+]2[O-])C1=O`, for which the TGI in test [1] was 32 µM; in test [2], 34.4 µM; in test [3] it was 33.1 µM; in [4], greater than 100 µM; in test [5], 28.5 µM; in test [6] it was greater than 100 µM. In addition, the TGI in [7] is 32.7 µM; in [8], 36.9 µM; in [10], greater than 100 µM.
On to `NC(=O)c1ncn(C2CCC(CP(=O)(O)O)C2)c1N` (stereo not drawn), for which the concentration for total growth inhibition (TGI) in test [1], in [2], in test [3], in [4], in test [5] and in test [6] was greater than 100 µM each time. The TGI in [7], in [8], in test [9] and in [10] was greater than 100 µM throughout.
For `CCOC(=O)C(C(N)=O)c1nc2cc([N+](=O)[O-])ccc2nc1/C=C(\O)c1ccc(C)cc1` (stereo not drawn), the TGI in test [1] is greater than 100 µM; in test [2], 46.7 µM; in [3], greater than 100 µM; in test [4] it was greater than 100 µM; in test [5], 37.1 µM; in [6], 43.6 µM. Moreover, the TGI in test [7] is 48.9 µM; in test [8], greater than 71.1 µM; in test [9] it was 39.4 µM; in [10] it was 48.3 µM.
With `COc1c2c(cc3oc(=O)ccc13)OC(C)(C)C=C2`, the TGI in [1] was 55.9 µM; in test [2], 76.2 µM; in test [3], 91.7 µM; in test [4] it was greater than 125 µM; in test [6], greater than 125 µM; in test [7], 51.1 µM. In addition, the TGI in [8] was 75.9 µM; in [9], greater than 125 µM; in [10] it was greater than 125 µM.
